Measurements reported in article PMC3907537, “Evaluation of the Endothelin Receptor Antagonists Ambrisentan, Bosentan, Macitentan, and Sitaxsentan as Hepatobiliary Transporter Inhibitors and Substrates in Sandwich-Cultured Human Hepatocytes” (PLoS ONE, 2014).
Where “and” joins values, the source holds several entries; their conditions need not be identical. Equal entries are not always repeated.

Experiments:
NTCP = test system: NTCP; set-up: method as in PMID 20628435; details: concentrations tested 2, 20, and 100 µM, Hartman et al. ref 29; cited from earlier work
BCRP = molecular target: T1, BCRP (Homo sapiens, UniProt Q9UNQ0); experiment: BCRP inhibition in MDCKII-ABCG2 cells; assay type: cell-based; details: mean ± SD of 3 independent studies in duplicate, tested 0.14–100 µM
T1 construct: host or cells: MDCKII
T1 sequence (Q9UNQ0 1-655): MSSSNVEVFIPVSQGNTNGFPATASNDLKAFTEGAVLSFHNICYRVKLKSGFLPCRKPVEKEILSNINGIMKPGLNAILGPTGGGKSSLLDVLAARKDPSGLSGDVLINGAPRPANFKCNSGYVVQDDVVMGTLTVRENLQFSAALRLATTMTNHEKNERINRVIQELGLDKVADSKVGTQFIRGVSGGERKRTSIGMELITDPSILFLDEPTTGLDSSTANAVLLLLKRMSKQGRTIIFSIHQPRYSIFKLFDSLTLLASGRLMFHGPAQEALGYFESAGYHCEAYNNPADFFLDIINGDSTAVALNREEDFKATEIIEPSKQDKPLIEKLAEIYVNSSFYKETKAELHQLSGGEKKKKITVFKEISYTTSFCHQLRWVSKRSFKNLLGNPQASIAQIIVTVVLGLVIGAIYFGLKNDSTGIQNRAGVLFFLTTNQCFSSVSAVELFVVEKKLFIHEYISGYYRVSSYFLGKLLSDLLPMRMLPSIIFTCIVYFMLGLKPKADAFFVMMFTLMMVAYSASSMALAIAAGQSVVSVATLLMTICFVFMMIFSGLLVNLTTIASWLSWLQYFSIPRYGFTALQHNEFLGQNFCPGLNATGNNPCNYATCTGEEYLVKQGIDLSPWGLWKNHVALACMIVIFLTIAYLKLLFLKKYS
Text: (§1) Chinese Hamster Ovary (CHO) cells were obtained from Professor B. Stieger’s laboratory at University of Zurich, Zurich, Switzerland. Madin-Darby Canine Kidney strain II (MDCKII) cells were obtained from Nederlands Kanker Instituut (NKI), Amsterdam, Netherlands. NTCP-CHO cells, BSEP and MRP2 membrane vesicles were developed and validated at Solvo Biotechnology, Budaors, Hungary.
(§2) MDCKII cells were maintained in DMEM with sodium pyruvate, Glutmax, 1% Penicillin/Streptomycin and 10% FBS in an incubator set at 37°C, 90% humidity and 5% CO2. MDCKII cells were seeded in 96-well black cell culture plates with clear bottoms at a density of 5×10^4 cells/well for Pgp and 2×10^4 cells/well for BCRP and grown to confluence. For the Pgp assay, test compounds were serially diluted in DMSO and then added into in cell culture medium (without FBS) containing 10 µM Calcein AM and incubated for 1 h. Following the removal of media containing Calcein AM and test compound, cells were washed five times with […] phosphate buffered saline containing magnesium and calcium (PBS). Wells were analyzed for Calcein AM fluorescence at an excitation of 494 nm and an emission of 517 nm. For the BCRP assay, test compounds were serially diluted DMSO and then spiked in cell culture medium (without FBS) containing 1 µM pheophorbide a (PhA) and incubated for 18 hours with MDCKII-ABCG2 cells. Following the removal of media containing PhA and test compound, cells were then washed five times with PBS. Wells were analyzed for PhA fluorescence at an excitation of 415 nm and an emission of 675 nm.
(§3) All assays were performed in duplicate. IC50 was defined as the test article concentration needed to inhibit the maximal transporter specific accumulation by 50%. IC50 values were calculated using non-linear fitting of % inhibition versus concentration to a sigmoidal curve with a variable Hill Coefficient using GraphPad Prism 5 (GraphPad Software Inc., San Diego, CA).

MRP2 = molecular target: T2, MRP2 (Homo sapiens, UniProt Q92887); experiment: MRP2 inhibition, estradiol-17-beta-glucuronide transport in Sf9 membrane vesicles; assay type: biochemical; details: E217βG 0.2 µM, single experiment in duplicate, tested 0.14–100 µM
T2 construct: purchased Solvo Biotechnology, Budaors, Hungary; host or cells: Sf9 insect cells (membrane vesicles)
T2 sequence (Q92887 whole entry): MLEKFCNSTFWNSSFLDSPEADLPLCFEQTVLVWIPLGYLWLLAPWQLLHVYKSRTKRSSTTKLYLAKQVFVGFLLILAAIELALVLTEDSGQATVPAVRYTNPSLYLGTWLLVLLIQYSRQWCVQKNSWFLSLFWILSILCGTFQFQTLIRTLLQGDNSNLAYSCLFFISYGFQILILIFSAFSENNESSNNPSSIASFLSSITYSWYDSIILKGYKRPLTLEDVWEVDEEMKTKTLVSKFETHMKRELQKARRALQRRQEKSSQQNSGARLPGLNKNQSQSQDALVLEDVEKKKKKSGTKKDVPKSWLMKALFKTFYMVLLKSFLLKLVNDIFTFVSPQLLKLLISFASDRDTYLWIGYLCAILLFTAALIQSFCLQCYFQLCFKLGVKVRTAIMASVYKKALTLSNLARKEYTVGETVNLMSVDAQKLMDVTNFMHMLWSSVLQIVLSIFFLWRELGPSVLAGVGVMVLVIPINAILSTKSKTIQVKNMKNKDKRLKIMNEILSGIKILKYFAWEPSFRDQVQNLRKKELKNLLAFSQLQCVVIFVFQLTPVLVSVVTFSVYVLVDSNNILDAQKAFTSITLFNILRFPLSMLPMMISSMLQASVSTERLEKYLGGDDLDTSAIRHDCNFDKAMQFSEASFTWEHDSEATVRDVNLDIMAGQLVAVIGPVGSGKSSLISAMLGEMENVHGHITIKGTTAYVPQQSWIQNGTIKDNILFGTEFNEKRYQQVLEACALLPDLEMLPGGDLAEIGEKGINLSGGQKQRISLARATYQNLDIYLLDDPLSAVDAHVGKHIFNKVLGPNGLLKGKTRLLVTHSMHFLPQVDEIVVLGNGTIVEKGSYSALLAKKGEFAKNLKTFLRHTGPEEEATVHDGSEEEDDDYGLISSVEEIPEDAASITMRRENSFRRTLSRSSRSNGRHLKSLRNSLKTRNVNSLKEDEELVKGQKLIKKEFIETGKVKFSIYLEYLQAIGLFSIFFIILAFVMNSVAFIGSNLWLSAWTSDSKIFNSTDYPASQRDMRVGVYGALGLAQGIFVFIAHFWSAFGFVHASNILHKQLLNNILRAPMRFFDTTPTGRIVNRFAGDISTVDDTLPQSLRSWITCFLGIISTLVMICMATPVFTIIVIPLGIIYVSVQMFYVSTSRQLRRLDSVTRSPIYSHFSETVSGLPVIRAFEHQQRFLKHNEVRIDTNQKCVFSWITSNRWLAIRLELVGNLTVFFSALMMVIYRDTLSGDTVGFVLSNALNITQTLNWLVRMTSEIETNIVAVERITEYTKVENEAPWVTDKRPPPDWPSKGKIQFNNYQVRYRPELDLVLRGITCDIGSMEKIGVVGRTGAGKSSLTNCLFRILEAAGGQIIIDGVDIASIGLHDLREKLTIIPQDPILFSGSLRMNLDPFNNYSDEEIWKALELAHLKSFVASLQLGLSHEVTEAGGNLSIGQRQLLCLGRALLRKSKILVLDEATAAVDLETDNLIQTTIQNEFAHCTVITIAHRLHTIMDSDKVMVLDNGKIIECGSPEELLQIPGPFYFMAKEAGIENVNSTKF
Text: as §1
(§4) BSEP and MRP2 inhibition was studied in membrane vesicles isolated from sf9 insect cells overexpressing the respective transporters. Vesicular transport inhibition assays used test compounds incubated with membrane vesicle preparations (total protein: 50 µg/well) and probe substrates, taurocholate (2 µM) for BSEP or Estradiol-17-beta-glucuronide (0.2 µM) for MRP2, in the absence or presence of ATP. Reaction mixtures were preincubated for 15 min at 37°C. Reactions were started by the addition of 25 µL of 12 mM MgATP or assay buffer (for background controls), preincubated separately. Reactions were stopped after 5 min by the addition of 200 µL of ice-cold washing buffer and immediate filtration via glass fiber filters mounted to a 96-well plate (filter plate). The filters were washed, dried and the amount of substrate inside the filtered vesicles determined by liquid scintillation. Cyclosporin A (20 µM) or benzbromarone (100 µM), for BSEP or MRP2, respectively, were used as positive control inhibitors. Control membranes lacking transporter expression were used as negative control.
as §3

Pgp = molecular target: T3, Pgp (Homo sapiens, UniProt P08183); experiment: Pgp inhibition, Calcein AM in MDCKII cells; assay type: cell-based; details: mean ± SD of 3 independent studies in duplicate, tested 0.14–100 µM
T3 construct: host or cells: MDCKII
T3 sequence (P08183 whole entry): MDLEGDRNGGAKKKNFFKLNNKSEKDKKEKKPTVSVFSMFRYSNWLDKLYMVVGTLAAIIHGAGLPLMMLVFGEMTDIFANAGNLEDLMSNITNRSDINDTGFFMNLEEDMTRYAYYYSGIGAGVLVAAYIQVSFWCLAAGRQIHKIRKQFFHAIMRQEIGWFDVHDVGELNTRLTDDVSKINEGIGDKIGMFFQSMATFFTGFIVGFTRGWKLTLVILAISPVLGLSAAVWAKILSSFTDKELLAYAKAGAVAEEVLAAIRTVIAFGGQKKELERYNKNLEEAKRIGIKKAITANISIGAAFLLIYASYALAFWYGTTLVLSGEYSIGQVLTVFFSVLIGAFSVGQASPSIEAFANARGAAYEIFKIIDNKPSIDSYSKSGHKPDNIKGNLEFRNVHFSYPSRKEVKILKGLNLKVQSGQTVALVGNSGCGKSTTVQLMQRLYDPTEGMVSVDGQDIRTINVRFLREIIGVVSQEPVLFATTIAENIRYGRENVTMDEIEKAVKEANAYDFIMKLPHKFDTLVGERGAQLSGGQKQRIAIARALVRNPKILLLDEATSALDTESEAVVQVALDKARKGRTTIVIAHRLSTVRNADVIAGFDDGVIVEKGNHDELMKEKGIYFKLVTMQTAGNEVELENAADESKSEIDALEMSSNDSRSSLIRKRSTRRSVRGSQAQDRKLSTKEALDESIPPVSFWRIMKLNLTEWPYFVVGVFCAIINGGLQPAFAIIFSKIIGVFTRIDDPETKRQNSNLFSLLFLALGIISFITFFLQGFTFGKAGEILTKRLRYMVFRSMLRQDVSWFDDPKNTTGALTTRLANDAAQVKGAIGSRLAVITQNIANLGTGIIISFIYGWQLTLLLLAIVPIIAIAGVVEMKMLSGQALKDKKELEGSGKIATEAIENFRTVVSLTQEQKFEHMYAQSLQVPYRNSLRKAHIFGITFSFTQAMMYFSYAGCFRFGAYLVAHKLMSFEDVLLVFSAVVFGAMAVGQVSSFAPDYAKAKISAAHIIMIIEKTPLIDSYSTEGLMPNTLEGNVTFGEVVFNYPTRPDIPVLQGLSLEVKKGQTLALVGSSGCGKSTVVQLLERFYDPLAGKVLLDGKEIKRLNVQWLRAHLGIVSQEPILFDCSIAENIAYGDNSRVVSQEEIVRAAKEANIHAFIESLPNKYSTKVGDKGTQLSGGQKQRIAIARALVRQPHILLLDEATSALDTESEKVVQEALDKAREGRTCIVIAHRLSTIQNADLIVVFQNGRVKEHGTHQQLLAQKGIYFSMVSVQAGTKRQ
Text: as §1, §2, §3

BSEP = molecular target: T4, BSEP (Homo sapiens, UniProt O95342); experiment: BSEP inhibition, taurocholate transport in Sf9 membrane vesicles; assay type: biochemical; details: taurocholate 2 µM, mean ± SD of 3 independent studies in duplicate, tested 0.14–100 µM
T4 construct: purchased Solvo Biotechnology, Budaors, Hungary; host or cells: Sf9 insect cells (membrane vesicles)
T4 sequence (O95342 whole entry): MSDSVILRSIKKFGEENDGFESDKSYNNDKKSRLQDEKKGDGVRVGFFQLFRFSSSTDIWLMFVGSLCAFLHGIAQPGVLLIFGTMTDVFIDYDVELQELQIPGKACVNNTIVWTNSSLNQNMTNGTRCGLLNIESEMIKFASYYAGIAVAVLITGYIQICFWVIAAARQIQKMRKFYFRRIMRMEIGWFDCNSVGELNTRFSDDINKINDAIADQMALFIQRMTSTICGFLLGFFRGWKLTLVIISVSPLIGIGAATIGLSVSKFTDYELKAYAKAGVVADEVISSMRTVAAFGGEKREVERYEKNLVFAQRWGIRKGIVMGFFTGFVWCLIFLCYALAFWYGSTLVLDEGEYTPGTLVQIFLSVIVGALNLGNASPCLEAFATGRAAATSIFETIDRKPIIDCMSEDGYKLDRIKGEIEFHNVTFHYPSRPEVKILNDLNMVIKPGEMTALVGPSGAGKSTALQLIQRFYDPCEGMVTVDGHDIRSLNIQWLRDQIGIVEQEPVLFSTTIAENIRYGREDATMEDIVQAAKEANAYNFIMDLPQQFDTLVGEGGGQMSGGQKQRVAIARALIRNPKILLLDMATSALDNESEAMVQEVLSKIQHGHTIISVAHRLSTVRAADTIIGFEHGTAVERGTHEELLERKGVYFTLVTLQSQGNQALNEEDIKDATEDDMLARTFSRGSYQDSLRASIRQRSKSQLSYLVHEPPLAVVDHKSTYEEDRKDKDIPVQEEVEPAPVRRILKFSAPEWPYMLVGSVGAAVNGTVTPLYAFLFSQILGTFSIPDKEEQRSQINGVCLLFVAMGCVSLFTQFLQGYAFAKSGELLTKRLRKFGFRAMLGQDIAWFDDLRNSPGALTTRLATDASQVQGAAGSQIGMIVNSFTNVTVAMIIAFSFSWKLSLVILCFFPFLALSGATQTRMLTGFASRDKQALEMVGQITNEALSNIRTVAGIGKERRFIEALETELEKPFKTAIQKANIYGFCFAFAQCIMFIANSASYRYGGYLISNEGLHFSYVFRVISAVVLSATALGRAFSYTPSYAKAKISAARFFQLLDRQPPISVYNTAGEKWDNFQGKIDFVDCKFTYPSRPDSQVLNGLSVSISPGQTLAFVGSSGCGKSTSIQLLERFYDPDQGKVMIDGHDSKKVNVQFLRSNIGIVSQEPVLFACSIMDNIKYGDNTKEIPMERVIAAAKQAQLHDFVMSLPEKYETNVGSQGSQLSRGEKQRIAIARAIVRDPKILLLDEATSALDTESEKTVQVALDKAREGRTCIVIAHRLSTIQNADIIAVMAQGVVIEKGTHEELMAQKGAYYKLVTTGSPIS
Text: as §1, §4, §3

| Compound | inhibition of NTCP (NTCP) | IC50 (BCRP) [µM] | IC50 (MRP2) [µM] | IC50 (Pgp) [µM] | IC50 (BSEP) |
| --- | --- | --- | --- | --- | --- |
| Cc1cc2c(cc1CC(=O)c1sccc1S(=O)(=O)Nc1onc(C)c1Cl)OCO2 [sitaxsentan] | inhibited | – | – | – | – |
| COc1ccccc1Oc1c(NS(=O)(=O)c2ccc(C(C)(C)C)cc2)nc(-c2ncccn2)nc1OCCO [bosentan] | inhibited | > 100 | > 100 | > 100 | 42 µM and 42.1 µM |
| COC(c1ccccc1)(c1ccccc1)[C@H](Oc1nc(C)cc(C)n1)C(=O)O [ambrisentan] | did not | > 100 | ~75 | > 100 | > 100 µM |
| CCCNS(=O)(=O)Nc1ncnc(OCCOc2ncc(Br)cn2)c1-c1ccc(Br)cc1 [macitentan] | – | 75 ± 37 | > 100 | 64 ± 15 | 12 µM and 11.9 µM |
